Drawing on ChEMBL document CHEMBL3714747, “Imidazothiadiazole and imidazopyrazine derivatives as protease activated receptor 4 (par4) inhibitors for treating platelet aggregation” (2015), this text covers inhibition in vivo and EC50 for two molecules.

Molecules are shown by their SMILES.

The test system of experiment [1] is Cynomolgus monkey. The experiment can be described thus: Antithrombotic activity in cynomolgus monkey electrolytic injury-induced carotid artery thrombosis model assessed as reduction in thrmbosis-induced occlusion at 0.02 mg/kg, po dosed 1 to 2 hrs before test. The experiment is classed as functional. As to conditions: Macaca fascicularis.
The test system of experiment [2] is Cynomolgus monkey. The experiment can be described thus: Antithrombotic activity in cynomolgus monkey electrolytic injury-induced carotid artery thrombosis model assessed as reduction in thrmbosis-induced occlusion at 0.5 mg/kg, po dosed 1 to 2 hrs before test. The class given is functional. As to conditions: Macaca fascicularis.
Experiment [3] concerns Cynomolgus monkey. In words: (§1) Antithrombotic activity in cynomolgus monkey electrolytic injury-induced carotid artery thrombosis model assessed as reduction in thrmbosis-induced occlusion at […], po dosed 1 to 2 hrs before test. As to conditions: Macaca fascicularis. The class given is functional.
Experiment [4] deals with Cynomolgus monkey. In words: Antithrombotic activity in cynomolgus monkey electrolytic injury-induced carotid artery thrombosis model assessed as reduction in thrmbosis-induced occlusion at 0.1 mg/kg, po dosed 1 to 2 hrs before test. The experiment is classed as functional. To be noted: Macaca fascicularis.
Experiment [5] relates to Cynomolgus monkey. The experiment is described as §1. The class given is functional. As to conditions: Macaca fascicularis. The source holds these as a separate data set.
Experiment [6] concerns the target T1, Proteinase-activated receptor 4 (Homo sapiens, UniProt Q96RI0).
T1 sequence (Q96RI0 whole entry): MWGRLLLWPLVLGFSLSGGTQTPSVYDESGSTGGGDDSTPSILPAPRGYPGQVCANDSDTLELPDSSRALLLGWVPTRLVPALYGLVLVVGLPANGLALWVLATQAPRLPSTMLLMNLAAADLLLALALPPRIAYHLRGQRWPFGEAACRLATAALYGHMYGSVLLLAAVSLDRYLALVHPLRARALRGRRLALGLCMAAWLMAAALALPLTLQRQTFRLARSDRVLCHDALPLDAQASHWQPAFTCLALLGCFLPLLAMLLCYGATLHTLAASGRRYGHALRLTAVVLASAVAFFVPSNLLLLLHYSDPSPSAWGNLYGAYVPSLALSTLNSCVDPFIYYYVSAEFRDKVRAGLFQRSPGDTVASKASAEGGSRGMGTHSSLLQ
In words: Antagonist activity against human PAR4 expressed in HEK293 cells assessed as reduction in H-Ala-Phe(4-F)-Pro-Gly-Trp-Leu-Val-Lys-Asn-Gly-NH2-induced intracellular calcium mobilization incubated for 30 mins by FLIPR assay. The class given is functional, cell-based.

By inhibition in vivo is commonly meant the share of the control response that was lost under treatment. Take `COc1cc(OCc2csc(-c3ccccc3)n2)c2cc(-c3cn4nc(OC)sc4n3)oc2c1`: the inhibition in vivo at 0.02 mg/kg in the experiment with Cynomolgus monkey [1] is 19%. Also, in the experiment on Cynomolgus monkey [2], the inhibition in vivo at 0.5 mg/kg came out at 47%. Also, the inhibition in vivo at […] stood at 46% in the experiment on Cynomolgus monkey [3] and 51% in the experiment on Cynomolgus monkey [5]. Further, the inhibition in vivo at 0.1 mg/kg with Cynomolgus monkey [4] is 24%.

By EC50 is commonly meant the concentration at which the effect is half-maximal. With `COc1cc(OCc2csc(N3CCN(c4cnccn4)CC3)n2)c2cc(-c3cn4nc(C)ccc4n3)oc2c1`, the 50% effective concentration (EC50) in experiment [6] was 0.42 nM.
